How the values were obtained:
Rattus norvegicus [1] = test: Serum creatinine concentration measured after intraperitoneal administration of 1 mg/kg of compound to rats(vehicle 4.82+/-0.17); format: functional
Rattus norvegicus [2] = test: Serum creatinine concentration measured after intraperitoneal administration of 0.01 mg/kg of compound to rats(vehicle 4.50+/-0.24); format: functional
Rattus norvegicus [3] = test: Serum creatinine concentration measured after intraperitoneal administration of 0.1 mg/kg of compound to rats(vehicle 3.92+/-0.23); format: functional
Rattus norvegicus [4] = test: Effect on urinary excretion potassium and sodium after oral administration of 0.4 mg/kg to rats(potassium and sodium excretion in control rat is 0.267+/-0.044); format: functional, Urine
Rattus norvegicus [5] = test: Percent inhibition of serum creatinine by the compound given as ratio of Cr value in treated to vehicle treated ones after intraperitoneal administration of 0.01 mg/kg of compound to rats(vehicle 4.50+/-0.24); format: functional; conditions: ip
Rattus norvegicus [6] = test: Percent inhibition of serum creatinine by the compound given as ratio of Cr value in treated to vehicle treated ones after intraperitoneal administration of 1 mg/kg of compound to rats(vehicle 4.82+/-0.17); format: functional; conditions: ip
Rattus norvegicus [7] = test: Ratio of urinary excretion value (urinary volume) in treated rats to that in control rats, at a peroral dose of 0.4 mg/Kg; format: functional, Urine
Rattus norvegicus [8] = test: Ratio of urinary excretion value (urinary volume) in treated rats to that in control rats, at a peroral dose of 1.6 mg/Kg; format: functional, Urine
Rattus norvegicus [9] = test: Urea nitrogen concentration measured after intraperitoneal administration of 1 mg/kg of compound to rats(vehicle 151.5+/-7.4); format: functional
Rattus norvegicus [10] = test: Ratio of sodium ion/potassium ion concentration in treated rats to that in control rats, at a peroral dose of 0.4 mg/Kg; format: functional
Rattus norvegicus [11] = test: Ratio of sodium ion/potassium ion concentration in treated rats to that in control rats, at a peroral dose of 1.6 mg/Kg; format: functional
Rattus norvegicus [12] = test: Ratio of urinary excretion value (Na+ concentration) in treated rats to that in control rats, at a peroral dose of 0.4 mg/Kg; format: functional, Urine
Rattus norvegicus [13] = test: Ratio of urinary excretion value (Na+ concentration) in treated rats to that in control rats, at a peroral dose of 1.6 mg/Kg; format: functional, Urine
Rattus norvegicus [14] = test: Effect on urinary excretion potassium and sodium after oral administration of 1.6 mg/kg to rats(potassium and sodium excretion in control rat is 0.169+/-0.012); format: functional, Urine
Rattus norvegicus [15] = test: Oral diuretic activity was measured after oral administration of 0.4 mg/kg to rats(control volume is 1.72+/-0.31); format: functional, Urine
Rattus norvegicus [16] = test: Urea nitrogen concentration measured after intraperitoneal administration of 0.1 mg/kg of compound to rats(vehicle 141.3+/-8.3); format: functional
Rattus norvegicus [17] = test: Oral diuretic activity was measured after oral administration of 1.6 mg/kg to rats(control volume is 0.97+/-0.05); format: functional, Urine
Rattus norvegicus [18] = test: Urea nitrogen concentration measured after intraperitoneal administration of 0.01 mg/kg of compound to rats(vehicle 130.6+/-4.12); format: functional
Rattus norvegicus [19] = test: Percent inhibition of Urea nitrogen by the compound given as ratio of UN value in treated to vehicle treated ones after intraperitoneal administration of 1 mg/kg of compound to rats(vehicle 151.5+/-7.4); format: functional; conditions: ip
Rattus norvegicus [20] = test: Percent inhibition of Urea nitrogen by the compound given as ratio of UN value in treated to vehicle treated ones after intraperitoneal administration of 0.01 mg/kg of compound to rats(vehicle 130.6+/-4.12); format: functional; conditions: ip
Rattus norvegicus [21] = test: Percent inhibition of Urea nitrogen by the compound given as ratio of UN value in treated to vehicle treated ones after intraperitoneal administration of 0.1 mg/kg of compound to rats(vehicle 141.3+/-8.3); format: functional; conditions: ip
Rattus norvegicus [22] = test: Percent inhibition of serum creatinine by the compound given as ratio of Cr value in treated to vehicle treated ones after intraperitoneal administration of 0.1 mg/kg of compound to rats(vehicle 3.92+/-0.23); format: functional; conditions: ip
Adenosine A2 receptor = Adenosine A2 receptor (Rattus norvegicus, UniProt P29276+P30543)
Rattus norvegicus [23] = test: Serum creatinine concentration measured after intraperitoneal administration of 10 mg/kg of compound to rats(vehicle 5.43+/-0.11); format: functional
Rattus norvegicus [24] = test: Effect on urinary excretion potassium and sodium after oral administration of 1.6 mg/kg to rats(potassium and sodium excretion in control rat is 0.079+/-0.007); format: functional, Urine
Rattus norvegicus [25] = test: Effect on urinary excretion potassium and sodium after oral administration of 25 mg/kg to rats(potassium and sodium excretion in control rat is 0.193+/-0.016); format: functional, Urine
Rattus norvegicus [26] = test: Ratio of urinary excretion value (urinary volume) in treated rats to that in control rats, at a peroral dose of 25 mg/Kg; format: functional, Urine
Rattus norvegicus [27] = test: Ratio of sodium ion/potassium ion concentration in treated rats to that in control rats, at a peroral dose of 25 mg/Kg; format: functional
Rattus norvegicus [28] = test: Ratio of urinary excretion value (Na+ concentration) in treated rats to that in control rats, at a peroral dose of 25 mg/Kg; format: functional, Urine
Rattus norvegicus [29] = test: Ratio of urinary excretion value (Na+ concentration) in treated rats to that in control rats, at a peroral dose of 6.25 mg/Kg; format: functional, Urine
Rattus norvegicus [30] = test: Percent inhibition of serum creatinine by the compound given as ratio of Cr value in treated to vehicle treated ones after intraperitoneal administration of 10 mg/kg of compound to rats(vehicle 182.5+/-3.4); format: functional; conditions: ip
Rattus norvegicus [31] = test: Urea nitrogen concentration measured after intraperitoneal administration of 10 mg/kg of compound to rats(vehicle 182.5+/-3.4); format: functional
Rattus norvegicus [32] = test: Oral diuretic activity was measured after oral administration of 1.6 mg/kg to rats(control volume is 0.69+/-0.03); format: functional, Urine
Rattus norvegicus [33] = test: Oral diuretic activity was measured after oral administration of 25 mg/kg to rats(control volume is 0.91+/-0.08); format: functional, Urine
Rattus norvegicus [34] = test: Percent inhibition of Urea nitrogen by the compound given as ratio of UN value in treated to vehicle treated ones after intraperitoneal administration of 10 mg/kg of compound to rats(vehicle 182.5+/-3.4); format: functional; conditions: ip
Rattus norvegicus [35] = test: Ratio of urinary excretion value (urinary volume) in treated rats to that in control rats, at a peroral dose of 6.25 mg/Kg; format: functional, Urine

**Q.** What does the source list for CC(C)Cn1c(=O)n(C)c(=O)c2[nH]c(C34CC5CC(CC3C5)C4)nc21?
**A.** Cr (Rattus norvegicus [1]): 2.76 mg/dL; Cr (Rattus norvegicus [2]): 3.38 mg/dL; Cr (Rattus norvegicus [3]): 2.04 mg/dL; Na (Rattus norvegicus [4]): 0.367 m equiv 6hr-1 100g-1; inhibition in vivo at 0.01 mg/kg (Rattus norvegicus [5]): 25%; inhibition in vivo at 1 mg/kg (Rattus norvegicus [6]): 42%; T/C (Rattus norvegicus [7]): 1.4; T/C (Rattus norvegicus [8]): 2.51; UN (Rattus norvegicus [9]): 74 mg/dL; Na+/K+ (Rattus norvegicus [10]): 1.37; Na+/K+ (Rattus norvegicus [11]): 1.73; T/C (Rattus norvegicus [12]): 1.38; T/C (Rattus norvegicus [13]): 2.43; Na (Rattus norvegicus [14]): 0.409 m equiv 6hr-1 100g-1; Urine volume (Rattus norvegicus [15]): 2.41 ml 6hr-1 100g-1; UN (Rattus norvegicus [16]): 70.9 mg/dL; Urine volume (Rattus norvegicus [17]): 2.43 ml 6hr-1 100g-1; UN (Rattus norvegicus [18]): 115.5 mg/dL; inhibition in vivo at 1 mg/kg (Rattus norvegicus [19]): 51%; inhibition in vivo at 0.01 mg/kg (Rattus norvegicus [20]): 12%; inhibition in vivo at 0.1 mg/kg (Rattus norvegicus [21]): 50%; inhibition in vivo at 0.1 mg/kg (Rattus norvegicus [22]): 48%; Ki (Adenosine A2 receptor): 850 nM

**Q.** Which Cr (Rattus norvegicus [23]) does the source give for Cn1c(=O)c2nc[nH]c2n(C)c1=O.O [THEOPHYLLINE] here?
**A.** 5.32 mg/dL

**Q.** And the Na (Rattus norvegicus [24])?
**A.** 0.09 m equiv 6hr-1 100g-1

**Q.** And the Na (Rattus norvegicus [25])?
**A.** 0.417 m equiv 6hr-1 100g-1

**Q.** What about the T/C (Rattus norvegicus [8]) of the same compound?
**A.** 1.03

**Q.** What about the T/C (Rattus norvegicus [26]) of the same compound?
**A.** 1.34

**Q.** What about the “Na+/K+” value (Rattus norvegicus [11]) of the same compound?
**A.** 1.06

**Q.** And the “Na+/K+” value (Rattus norvegicus [27])?
**A.** 1.08

**Q.** What about the T/C (Rattus norvegicus [13]) of the same compound?
**A.** 1.14

**Q.** What about the T/C (Rattus norvegicus [28]) of the same compound?
**A.** 2.16

**Q.** What about the T/C (Rattus norvegicus [29]) of the same compound?
**A.** 1.52

**Q.** What about the inhibition in vivo at 10 mg/kg (Rattus norvegicus [30]) of the same compound?
**A.** 2%

**Q.** What about the UN (Rattus norvegicus [31]) of the same compound?
**A.** 174 mg/dL

**Q.** And the Urine volume (Rattus norvegicus [32])?
**A.** 0.71 ml 6hr-1 100g-1

**Q.** And the Urine volume (Rattus norvegicus [33])?
**A.** 1.22 ml 6hr-1 100g-1

**Q.** And the inhibition in vivo at 10 mg/kg (Rattus norvegicus [34])?
**A.** 5%

**Q.** What about the T/C (Rattus norvegicus [35]) of the same compound?
**A.** 1.42
